Structures are written as SMILES. Where only a bound is given, the exact number is not on record here.

This assay has as its system HIV-1 (IIIB). Briefly: Antiviral (HIV) assay in MT-4 cells. The assay is classed as cell-based. The note with it: Human immunodeficiency virus 1, MT4, 120 h; HIV-1 IIIB in MT-4 cells, 5 days incubation, Cell Titer Glo; average of at least two independent experiments. How it is done:
Example 104: Antiviral (HIV) Assay in MT-4 Cells
Compounds were tested in a high-throughput 384-well assay format for their ability to inhibit the replication of HIV-1 (IIIB) in MT-4 cells. Compounds were serially diluted (1:3) in DMSO on 384-well polypropylene plates and further diluted 200-fold into complete RPMI media (10% FBS, 1% P/S) using the Biotek Micro Flow and Labcyte ECHO acoustic dispenser. Each plate contained up to 8 test compounds, with negative (no drug) and positive (5 μM AZT) controls. MT-4 cells were pre-treated with 10 μL of either RPMI (mock-infected) or a fresh 1:250 dilution of HIV-1 IIIB concentrated virus stock. Infected and uninfected MT-4 cells were further diluted in complete RPMI media and added to each plate using a Micro Flow dispenser. After 5 days incubation in a humidified and temperature-controlled incubator (37° C.), Cell Titer Glo (Promega) was added to the assay plates and chemiluminescence read using an Envision plate-reader. EC50 values were defined as the compound concentration that causes a 50% decrease in luminescence signal and were calculated using a sigmoidal dose-response model to generate curve fits and are shown in Table 1.
On the technique in general: Cellular ATP, detected with luciferase, serves as a proxy for viable cell number.
As a reminder, the EC50 is the concentration giving half of the maximal effect. `C[C@H](Cn1cnc2c(N)ncnc21)OCP(=O)(NC(C)(C)C(=O)OCC1CCC2(CCC2)CC1)NC(C)(C)C(=O)OCC1CCC2(CCC2)CC1` (stereo partly drawn) [Example 53, Bis(spiro[3.5]nonan-7-ylmethyl) 2,2′-(((((1-(6-amino-9H-purin-9-yl)propan-2-yl)oxy)methyl)phosphoryl)bis(azanediyl))(R)-bis(2-methylpropanoate)] displayed an EC50 of 6 nM.

In turn, `CCCCCCOC(=O)C(C)(C)NP(=O)(CO[C@H](C)Cn1cnc2c(NC(=O)OCc3oc(=O)oc3C)ncnc21)NC(C)(C)C(=O)OCCCCCC` [Example 33, Dihexyl 2,2′-(((((1-(6-((((5-methyl-2-oxo-1,3-dioxol-4-yl)methoxy)carbonyl)amino)-9H-purin-9-yl)propan-2-yl)oxy)methyl)phosphoryl)bis(azanediyl))(R)-bis(2-methylpropanoate)] had an EC50 of 7 nM.

`C[C@H](Cn1cnc2c(N)ncnc21)OCP(=O)(NC(C)(C)C(=O)OCC12CCC(CC1)C2)NC(C)(C)C(=O)OCC12CCC(CC1)C2` [Example 87, Bis(bicyclo[2.2.1]heptan-1-ylmethyl) 2,2′-(((((1-(6-amino-9H-purin-9-yl)propan-2-yl)oxy)methyl)phosphoryl)bis(azanediyl))(R)-bis(2-methylpropanoate)] yielded an EC50 of 6 nM.

The compound `C[C@H](Cn1cnc2c(N)ncnc21)OCP(=O)(NC(C)(C)C(=O)OC1CCC1)NC(C)(C)C(=O)OC1CCC1` [Example 47, Dicyclobutyl 2,2′-(((((1-(6-amino-9H-purin-9-yl)propan-2-yl)oxy)methyl)phosphoryl)bis(azanediyl))(R)-bis(2-methylpropanoate)] yielded an EC50 of 7 nM.

`C[C@H](Cn1cnc2c(N)ncnc21)OCP(=O)(NC(C)(C)C(=O)OCC1CCCCC1)NC(C)(C)C(=O)OCC1CCCCC1` [Example 46, Bis(cyclohexylmethyl) 2,2′-(((((1-(6-amino-9H-purin-9-yl)propan-2-yl)oxy)methyl)phosphoryl)bis(azanediyl))(R)-bis(2-methylpropanoate)] yielded an EC50 of 5 nM.

The compound `CC(C)CCOC(=O)C(C)(C)NP(=O)(CO[C@H](C)Cn1cnc2c(N)ncnc21)NC(C)(C)C(=O)OCCC(C)C` [Example 6, Diisopentyl 2,2′-(((((1-(6-amino-9H-purin-9-yl)propan-2-yl)oxy)methyl)phosphoryl)bis(azanediyl))(R)-bis(2-methylpropanoate)] yielded an EC50 of 2 nM.

The compound `CCCCCCOC(=O)C(C)(C)NP(=O)(CO[C@H](C)Cn1cnc2c(NC(C)=O)ncnc21)NC(C)(C)C(=O)OCCCCCC` [Example 28, Dihexyl 2,2′-(((((1-(6-acetamido-9H-purin-9-yl)propan-2-yl)oxy)methyl)phosphoryl)bis(azanediyl))(R)-bis(2-methylpropanoate)] gave a concentration for a half-maximal effect (EC50) of 65 nM.

The compound `CCCCCCOC(=O)C(C)(C)NP(=O)(CO[C@H](C)Cn1cnc2c(N)ncnc21)NC(C)(C)C(=O)O[C@H]1CC[C@H](C(F)(F)F)CC1` (stereo partly drawn) [Example 22, Hexyl 2-((((((R)-1-(6-amino-9H-purin-9-yl)propan-2-yl)oxy)methyl)((2-methyl-1-oxo-1-((trans-4-(trifluoromethyl)cyclohexyl)oxy)propan-2-yl)amino)phosphoryl)amino)-2-methylpropanoate] displayed a concentration for a half-maximal effect (EC50) of 9 nM.

`C[C@H](Cn1cnc2c(N)ncnc21)OCP(=O)(NC(C)(C)C(=O)O[C@@H]1C[C@@H]2C[C@@H]2C1)NC(C)(C)C(=O)O[C@@H]1C[C@@H]2C[C@@H]2C1` [Example 60, Di((1R,3R,5S)-bicyclo[3.1.0]hexan-3-yl) 2,2′-((((((R)-1-(6-amino-9H-purin-9-yl)propan-2-yl)oxy)methyl)phosphoryl)bis(azanediyl))bis(2-methylpropanoate)] registered an EC50 of 3 nM. Compared with the last compound, the EC50 is about 3-fold lower.

Compound `CCC(CC)COC(=O)C1(NP(=O)(CO[C@H](C)Cn2cnc3c(N)ncnc32)NC2(C(=O)OCC(CC)CC)CC2)CC1` [Example 70, Bis(2-ethylbutyl) 1,1′-(((((1-(6-amino-9H-purin-9-yl)propan-2-yl)oxy)methyl)phosphoryl)bis(azanediyl))(R)-bis(cyclopropane-1-carboxylate)] registered an EC50 greater than 500 nM.

Values taken from patent US12110305B2, “Prodrugs of phosphonamide nucleotide analogues and their pharmaceutical use” (priority 2020, dated 2024).
